Laboratory results published in patent US20030073218A1, “High affinity inhibitors for target validation and uses thereof” (Princeton University, priority 1999, published 2003).

What was measured:
I338G v-Src = biological target: T1, I338G v-Src (Rous sarcoma virus subgroup A, UniProt P00524, DEL77-225/I338G); test: biochemical; assay type: biochemical; settings: Table 3; read-out: IC50, 1338G v-Src
T1 construct: screened against the catalytic domain of the target kinase, I338G v-Src; made in house; host or cells: E. coli DH5a, pGEX-KT

WT v-Src = biological target: T2, WT v-Src (Rous sarcoma virus subgroup A, UniProt P00524, DEL77-225); test: biochemical; assay type: biochemical; settings: Table 3, wild type; read-out: IC50, vSrc
T2 construct: mutant of the v-Src catalytic domain, (the XD4 fragment) were made as glutathione S-transferase (GST) fusion proteins; made in house; host or cells: E. coli (DH5a), pGEX-KT

[1] = test system: panel of wild-type protein kinases (v-src, Fyn, c-Abl, CAMK IIα, CDK2); test: In vitro inhibition, panel of wild-type protein kinases; assay type: biochemical
[2] = test system: I338G v-Src, T339G Fyn, T315A Abl, F89G CAMK IIα and F80G CDK2; test: In vitro inhibition, panel of engineered protein kinases; assay type: biochemical
Cdc28-as1 (F88G Cdc28) = biological target: T3, Cdc28-as1 (F88G Cdc28) (Saccharomyces cerevisiae, UniProt P00546, F88G); test: In vitro sensitivity of Cdc28 kinases to PP1 derivatives (Example 19); assay type: biochemical; settings: read-out: IC50, engineered Cdc28
T3 construct: made in house
T3 sequence (P00546 whole entry F88G): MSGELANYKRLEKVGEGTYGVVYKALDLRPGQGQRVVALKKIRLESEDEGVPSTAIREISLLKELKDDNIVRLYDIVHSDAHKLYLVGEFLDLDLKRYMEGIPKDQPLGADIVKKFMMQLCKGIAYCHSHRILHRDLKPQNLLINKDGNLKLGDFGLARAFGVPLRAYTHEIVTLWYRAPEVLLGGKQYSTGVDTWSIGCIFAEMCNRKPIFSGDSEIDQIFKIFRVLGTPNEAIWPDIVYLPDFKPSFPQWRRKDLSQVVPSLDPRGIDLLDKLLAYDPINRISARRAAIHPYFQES
T3 sequence (P24869 whole entry, further chain): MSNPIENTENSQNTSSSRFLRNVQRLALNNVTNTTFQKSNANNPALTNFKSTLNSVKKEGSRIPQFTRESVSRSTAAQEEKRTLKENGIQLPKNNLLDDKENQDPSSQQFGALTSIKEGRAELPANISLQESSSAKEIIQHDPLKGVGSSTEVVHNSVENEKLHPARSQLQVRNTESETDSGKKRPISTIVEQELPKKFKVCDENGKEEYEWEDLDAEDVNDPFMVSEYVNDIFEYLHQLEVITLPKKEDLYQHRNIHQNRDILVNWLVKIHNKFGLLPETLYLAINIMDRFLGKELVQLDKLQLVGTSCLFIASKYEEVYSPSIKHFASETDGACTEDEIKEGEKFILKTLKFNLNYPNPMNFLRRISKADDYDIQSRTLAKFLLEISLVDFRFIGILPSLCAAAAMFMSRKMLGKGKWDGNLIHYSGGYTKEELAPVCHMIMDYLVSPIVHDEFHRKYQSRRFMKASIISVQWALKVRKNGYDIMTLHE

cdc28-as1 strain = test: Yeast growth; assay type: cell-based, Saccharomyces cerevisiae
Procedure: (§1) Yeast Plasmid and Strain Construction: Media and genetic and microbial techniques were essentially as described (148, 153). All strains were derivatives of W30-3 (ura3-a, leu2-3, 112, trpl-1, his3-11,15, ade2-1, can1-100, GAL+). All strains were grown at 23° C. unless otherwise noted. To create cdc28-as1, the CDC28 coding sequence and 400 bp of 5′-and 386 bp of 3′-flanking DNA was PCR-amplified from genomic DNA and ligated into pRS306 to make pJAU1. The F88G mutation was engineered by oligonucleotide-directed mutagenesis of pJAU1. The plasmid was integrated into the wild-type CDC28 locus following AflII digestion by a pop-in-pop-out strategy as described (148, 153).
as §1, with “To examine the function of Cdc28 in vivo, a yeast strain in which the wild-type copy of CDC28 was replaced by cdc28-as1 was constructed.” for “Yeast Plasmid and Strain Construction:”, “W303 (ura3-1,” for “W30-3 (ura3-a,”, “cdc28-as1 ,” for “cdc28-as1,”, “5′- and” for “5′-and”, “AfII” for “AflII”

wild-type strain (CDC28) = test: Yeast growth; assay type: cell-based, Saccharomyces cerevisiae
Procedure: as §1
as §1, with “To examine the function of Cdc28 in vivo, a yeast strain in which the wild-type copy of CDC28 was replaced by cdc28-as1 was constructed.” for “Yeast Plasmid and Strain Construction:”, “W303 (ura3-1,” for “W30-3 (ura3-a,”, “cdc28-as1 ,” for “cdc28-as1,”, “5′- and” for “5′-and”, “AfII” for “AflII”

[3] = test system: Fus3-as1 expressing yeast; test: Yeast mating assay for Fus3 function; assay type: cell-based, Saccharomyces cerevisiae; settings: 50 μM
[4] = test system: wild-type Fus3 expressing yeast; test: Yeast mating assay for Fus3 function; assay type: cell-based, Saccharomyces cerevisiae; settings: all concentrations up to 50 μM
[5] = test system: S. cerevisiae expressing wild-type Fus3, Fus3-as1, or no Fus3; test: Non-selective cytotoxicity control, mating cultures plated on YPD; assay type: cell-based, Saccharomyces cerevisiae; settings: any of the three strains
Cdc28-as1 · MBP-Clb2 = biological target: T4, Cdc28-as1 · MBP-Clb2 (Saccharomyces cerevisiae, UniProt P00546, F88G); test: 1-NM-PP1 IC50, Histone H1 kinase assay; assay type: biochemical; settings: 1 MM ATP
T4 construct: made in house; host or cells: Sf9 insect cells, baculovirus, co-infected with Cak1-HA3 (Cdc28-as1-His6); bacteria (MBP-Clb2)
T4 sequence (P00546 whole entry F88G): as the sequence (P00546 whole entry F88G) above
T4 sequence (P24869 whole entry, further chain): as the sequence (P24869 whole entry, further chain) above
Procedure: Phosphate incorporation was determined at each inhibitor concentration by scintillation counting.
Cdc28-as1 is highly sensitive to 1-NM-PP1 in vitro and is a slightly weakened kinase.

cdc28-as1 cells [6] = test: DNA content (flow cytometry) and morphology of yeast cells; assay type: cell-based, Saccharomyces cerevisiae; settings: for cell cycle effect (G2/M DNA content, large hyperpolarized buds): asynchronous cells
Procedure: DNA flow cytometry: Approximately 1×10^7 cells for each sample were fixed in 70% ethanol, resuspended in 50 mM Tris-HCl pH 8.0, briefly sonicated, digested with 2mg/ml RNase for 2 hours at 37° C., and resuspended in 0.2 ml protease solution (5 mg/ml pepsin. 0.5% concentrated HCl ) and digested for 45 minutes at 37° C. DNA was stained with 1μM Sytox Green (Molecular Probes) in 50 mM Tris-HCl pH 7.5 and 20,000 cells from each sample were scanned with a FACScan FACS machine (Becton-Dickinson).
Thus, it appears possible to titrate the level of Cdc28-as1 activity in vivo, allowing the identification of cell cycle events that are differentially sensitive to decreases in the catalytic activity of Cdc28.
When cdc28-as1 cells were synchronized in G1 with the yeast mating pheromone, α-factor factor, and then released into fresh media containing 500 nM 1-NM-PP 1, initiation of budding and DNA synthesis were delayed about 30 to 60 minutes, while accumulation of the mitotic cyclin Clb2 was delayed 60 to 90 minutes. […] Thus, cells treated with low concentrations of the inhibitor are slightly delayed during progression through early stages of the cell cycle, but eventually arrest due to a failure to assemble a mitotic spindle and enter mitosis.
These cells eventually budded after 180 to 240 minutes and arrested with a IC DNA content, large hyperpolarized buds, a single DNA mass in the mother cell, and an interphase astral microtubule array.

[7] = test system: cdc28-as1 strain lacking PCL1 and PCL2; test: Budding and DNA content after release from G1; assay type: cell-based, Saccharomyces cerevisiae; settings: G1 synchronized, released into 5,000 nM
Procedure: Pho85, a Cdk that is closely related to Cdc28, has been implicated in the initiation of budding in S. cerevisiae (128, 129). Therefore, the budding observed in cdc28-as1 cells released into 5,000 nM 1-NM-PP1 due to residual Cdc28-as1 activity or due to Pho85 activity was investigated. A cdc28-as1 strain lacking PCL1 and PCL2, which encode the two G1 activating cyclins of Pho85 were constructed. […] It was concluded that Pc11- and Pc12-associated Pho85 activity, and not residual Cdc28 activity, are responsible for the greatly delayed budding observed in cdc28-as1 cells treated with high concentrations of inhibitor.

cdc28-as1 cells [8] = test: Genome-wide transcription, oligonucleotide DNA arrays; assay type: cell-based, Saccharomyces cerevisiae
Text: (§2) Error bars represent standard errors of the means.
(§3) Changes were deemed significant if they were greater than or equal to 2-fold or if the transcript changed present/absent status (as indicated by Affymetrix software) in the following comparisons: for non-specific drug effects: CDC28+1-NM-PP1 vs. CDC28; for cdc28-as1 effects: cdc28-as1 vs. CDC28.

wild-type cells = test: as above; assay type: cell-based, Saccharomyces cerevisiae
Text: as §2, §3

wild-type c-Abl = biological target: T5, wild-type c-Abl (Homo sapiens, UniProt P00519); test: In vitro inhibition by K252a; assay type: biochemical
T5 construct: GST; made in house
T5 sequence (P00519 whole entry): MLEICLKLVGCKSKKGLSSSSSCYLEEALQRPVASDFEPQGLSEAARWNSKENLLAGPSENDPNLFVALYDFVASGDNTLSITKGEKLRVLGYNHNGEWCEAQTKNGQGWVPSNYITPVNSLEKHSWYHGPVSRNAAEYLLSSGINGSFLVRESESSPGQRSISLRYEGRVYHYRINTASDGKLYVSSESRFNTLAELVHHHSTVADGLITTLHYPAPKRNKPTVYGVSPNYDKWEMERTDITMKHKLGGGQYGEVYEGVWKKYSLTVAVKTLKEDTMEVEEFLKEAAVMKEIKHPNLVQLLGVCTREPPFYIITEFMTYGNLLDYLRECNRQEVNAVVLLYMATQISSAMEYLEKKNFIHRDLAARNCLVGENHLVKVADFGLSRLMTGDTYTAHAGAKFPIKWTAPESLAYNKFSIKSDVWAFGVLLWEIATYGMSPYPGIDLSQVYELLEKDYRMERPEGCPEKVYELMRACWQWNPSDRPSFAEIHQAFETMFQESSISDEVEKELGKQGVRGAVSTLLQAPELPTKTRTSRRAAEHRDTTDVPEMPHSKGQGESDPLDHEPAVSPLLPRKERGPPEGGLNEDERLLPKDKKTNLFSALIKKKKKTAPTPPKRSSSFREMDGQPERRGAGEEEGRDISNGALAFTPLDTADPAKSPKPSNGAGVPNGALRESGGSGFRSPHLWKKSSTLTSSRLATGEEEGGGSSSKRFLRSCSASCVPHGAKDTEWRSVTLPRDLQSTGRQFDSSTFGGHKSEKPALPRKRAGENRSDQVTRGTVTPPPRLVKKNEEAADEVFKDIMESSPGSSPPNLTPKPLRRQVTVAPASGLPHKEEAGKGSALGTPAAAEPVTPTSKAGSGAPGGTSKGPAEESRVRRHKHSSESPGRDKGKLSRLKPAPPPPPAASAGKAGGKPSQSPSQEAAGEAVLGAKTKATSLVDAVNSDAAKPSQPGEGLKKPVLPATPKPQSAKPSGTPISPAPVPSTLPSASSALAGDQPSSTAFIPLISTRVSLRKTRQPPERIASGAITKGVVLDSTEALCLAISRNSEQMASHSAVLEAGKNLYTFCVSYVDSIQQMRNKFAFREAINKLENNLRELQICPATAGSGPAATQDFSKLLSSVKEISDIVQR

protein kinase A = protein kinase A (Homo sapiens, UniProt P17612); settings: reported (89, 90); cited from earlier work
[9] = biological target: cGMP dependent protein kinase; settings: reported (89, 90); cited from earlier work
[10] = test system: Trk family tyrosin kinases; settings: reported (89, 90); cited from earlier work
[11] = G1 synchronized with α-factor, released into 500 nM
[12] = G1 synchronized, released into 5,000 nM

Structure (SMILES): CC(C)(C)n1nc(Cc2cccc3ccccc23)c2c(N)ncnc21 [Compound 6h, 4-amino-1-(tert-butyl)-3-(1′-naphthylmethyl)pyrazolo[3,4-d]pyrimidine]
- IC50 (I338G v-Src): 4.2 nM
- IC50 (WT v-Src): 28000 nM
- concentration at which wild-type kinases are inhibited ([1]; none inhibited below this concentration): ≥ 1 µM
- inhibition of engineered kinases (in words) [2]: the most potent inhibitor of every engineered kinase tested
- IC50 ([2]; within a 3 fold range, read-out: IC50 for all of the glycine mutants): < 10 nM
- IC50 (Cdc28-as1 (F88G Cdc28)): 3.9 nM
- growth of yeast which express Cdc28-as1 (cdc28-as1 strain): completely ablated
- inhibitor concentration for complete growth arrest (cdc28-as1 strain): above 500 nM
- IC50 (cdc28-as1 strain; in vivo, read-out: inhibitor concentration at which growth is inhibited 50%): 50 to 100 nM
- proliferation of wild-type cells (wild-type strain (CDC28)): unaffected by the inhibitor except at very high concentrations
- growth of wild-type strains (wild-type strain (CDC28); same concentrations): had no effect on the growth of wild-type strains
- decrease of Fus3-as1 mediated mating [3]: 85 fold
- mating efficiency [4]: no decrease in mating efficiency
- cfu/mL on YPD plates (non-selective cytotoxicity) [5]: No significant decrease in cfu/mL on YPD plates
- IC50 (Cdc28-as1 · MBP-Clb2): ~3 nM
- delay of accumulation of the mitotic cyclin Clb2 (cdc28-as1 cells [6]; [11]): 60 to 90 min
- delay of initiation of budding and DNA synthesis (cdc28-as1 cells [6]; [11]): 30 to 60 min
- terminal arrest phenotype (cdc28-as1 cells [6]; G1 synchronized, released into 500 nM): arrest with moderate Clb2 levels, highly hyperpolarized buds, and a G2M DNA content
- arrest phenotype (cdc28-as1 cells [6]; [12]): arrested with a IC DNA content and initially failed to bud
- time after which cells eventually budded (cdc28-as1 cells [6]; [12]): 180 to 240 min
- cell cycle effect (G2/M DNA content, large hyperpolarized buds) (cdc28-as1 cells [6]; 50 nM): delay
- cell cycle effect (G2/M DNA content, large hyperpolarized buds) (cdc28-as1 cells [6]; 500 nM): arrest
- cell cycle effect (cdc28-as1 cells [6]; asynchronous cells, 5,000 nM): non-uniform arrest that included unbudded GI cells as well as large-budded G2/M cells
- arrest phenotype [7]: arrested with a 1C DNA content and never budded, even after 6 hours
- G2/M transcription (cdc28-as1 cells [8]; 500 nM, 120 minutes): causes a drop in G2/M transcription
- down-regulated transcripts that are cell cycle-regulated (cdc28-as1 cells [8]; 500 nM, two hours): 60 transcripts
- down-regulated transcripts with peak expression at G2/M (cdc28-as1 cells [8]; 500 nM, two hours): 32 transcripts
- number of genes with […] or greater decreases (cdc28-as1 cells [8]; 500 nM, two hours): 66 genes
- number of genes with […] or greater increases (cdc28-as1 cells [8]; 500 nM, two hours): 38 genes
- down-regulation of the Cln-Cdc28 inhibitor Far 1 transcript (cdc28-as1 cells [8]; two-hour drug exposure): 20 fold
- effects on wild-type cell physiology (wild-type cells; 500 nM): has no significant effects on wild-type cell physiology
- number of genes whose transcription changed greater than two-fold (wild-type cells; 500 nM, 30 minutes): 6 genes
- share of genes whose transcription changed greater than two-fold (wild-type cells; 500 nM, 30 minutes): 0.1%
- number of genes changed (wild-type cells; 120 minutes): 3 genes

Structure (SMILES): COC(=O)[C@@]1(O)C[C@H]2O[C@]1(C)n1c3ccccc3c3c4c(c5c6ccccc6n2c5c31)C(=O)NC4 [Compound K252a, (+)-K252a]
- inhibition of wild-type Abl (wild-type c-Abl): not effectively inhibited
- inhibition of wild-type protein kinases (in words) [1]: can efficiently inhibit Src family kinases, cyclin dependent kinases, and calmodulin dependent kinases
- IC50 (protein kinase A): ≤ 30 nM
- IC50 [9]: ≤ 30 nM
- IC50 [10]: ≤ 30 nM
